Earlier results, collected in US10398729B2, “Method for treating Alzheimer's disease” (priority 2012, dated 2019).

Key:
[1] = system: brain functions; details: prolonged intranasal administration
[2] = system: elderly adults with early memory decline
[3] = system: patients with mild-to-moderate AD
[4] = system: primary human fibroblast cells (IMR-90); details: IMR-90 cells in vitro
[5] = system: hepatoma cells SMMC-7721; details: 20.0 μmol/L chromic chloride
[6] = system: macrophages

insulin
memory and mood [1]: improving memory and mood
systemic side effects [1]: absence of systemic side effects

chromium picolinate
cognitive performance and brain function [2]: can improve cognitive performance and brain function

CCCCCCCC(=O)OCC(COC(=O)CCCCCCC)OC(=O)CCCCCCC [AC-1202]
memory and cognition [3]: improves memory and cognition

CC(C)(C)NO [N-tert-butylhydroxylamine (NtBHA), N-tert-butylhydroxylamine]
senescence-related and H2O2-stimulated iron accumulation [4]: attenuated

[Cl][Cr]([Cl])[Cl] [chromic chloride]
telomere lengths [5]: remarkably extended the telomere lengths

C=C1/C(=C\C=C2/CCC[C@]3(C)[C@@H]([C@H](C)CCCC(C)(C)O)CC[C@@H]23)C[C@@H](O)C[C@@H]1O [1,25D3, 1alpha,25-dihydroxyvitamin D3]
apoptosis [6]: protecting against apoptosis
Abeta phagocytosis and clearance ([6]; studied in combination with curcuminoids): strongly stimulated
